Results: patent publication US4548938A, “5-H-1,3,4-thiadiazolo[3,2-a]pyrimidin-5-one compounds” (Janssen Pharmaceutica N.V., priority 1985, dated 1985)
Like-named read-outs stand apart in the source and are kept apart here.

Legend:
[1] = system: compound 48/80-induced gastric lesions; conditions: rats treated with compound 48/80; known serotonin antagonists; cited from earlier work
[2] = system: apomorphine-induced emesis; test: apomorphine test in dogs (APO-dog); format: in vivo; conditions: Canis lupus familiaris, sc; beagle dogs; apomorphine 0.31 mg/kg s.c. 1 hour after compound; protection from emesis
[3] = system: compound 48/80-induced gastric lesions; test: gastric lesion test: lesions induced by compound 48/80; format: in vivo; conditions: Rattus norvegicus; rats; compound 48/80; distension of the stomach completely absent in 50% of rats; read-out: gastric lesion test ED50
[4] = system: serotonin-induced contraction of rat caudal artery; test: antagonistic activity on the effect of serotonin on the caudal artery of the rat; conditions: serotonin 40 ng/ml; minimal concentration reducing contraction amplitude to at least 50% of normal; 5 min
Experimental: ANTAGONISTIC ACTIVITY ON THE EFFECT OF SEROTONIN ON THE CAUDAL ARTERY OF THE RAT
Caudal arteries from fasted male rats (210-235 g) were used in the test. Two helical strips having a length of 5-6 cm and a width of 2 mm. were obtained from each artery and mounted vertically in a 100 ml organ bath containing an oxygenated Krebs-Henseleit solution. Submaximal contractions of the arterial strips were produced by adding single doses of serotonin (40 ng/ml) to the organ bath for 2 minutes with each time an interval of 10 minutes. The amplitude of the contraction was measured before and 5 minutes after adding the drug. After washing out, the agonist was added again three times in order to see whether the contraction was restored and normalized.

[5] = system: norepinephrine-induced mortality; test: norepinephrine (NOR) test in rats, part of the combined APO-TRY-NOR test; format: in vivo, male Wistar rats; conditions: Rattus norvegicus, sc, 2 h, norepinephrine 1.25 mg/kg i.v. at 120 min
Experimental: THE COMBINED APOMORPHINE (APO)-, TRYPTAMINE (TRY)- AND NOREPINEPHRINE (NOR) TEST IN RATS
The experimental animals used in this test were adult male Wistar rats (weight 240±10 g). After an overnight fast, the animals were treated subcutaneously (1 ml/100 g) with an aqueous solution of the compound under investigation (time=zero) and put in isolated observation cages. […] At the end of this 1 hour period (time=90 minutes) the same animals were injected intravenously with 40 mg/kg of tryptamine (TRY) and the presence of the typical tryptamine-induced bilateral tonic seizures was noted. Two hours after pretreatment (time=120 minutes) finally, the same animals were challenged with 1.25 mg/kg intravenously of norepinephrine (NOR) and possible mortality was looked for up to 60 minutes later.
The table 1 gives the ED50 -values of a number of the compounds under consideration. As used herein, the ED50 -value represents the dose which protects 50% of the animals from apomorphine-, tryptamine- or norepinephrine-induced phenomena.

[6] = system: compound 48/80-induced lethality; test: protection of rats from compound 48/80-induced lethality; format: in vivo, male Wistar rats; conditions: Rattus norvegicus, sc, 4 h, s.c., compound 48/80 0.5 mg/kg i.v. 1 hour after treatment, 50% protected against lethality, read-out: 48/80-test ED50
Text: PROTECTION OF RATS FROM COMPOUND 48/80-INDUCED LETHALITY
Compound 48/80, a mixture of oligomers obtained by condensation of 4-methoxy-N-methyl-phenethylamine and formaldehyde has been described as a potent histamine releasing agent (Int. Arch. Allergy, 13, 336 (1958)). The protection from compound 48/80-induced lethal circulatory collapse appears to be a simple way of evaluating quantitatively the antihistaminic activity of test-compounds. Male rats of an inbred Wistar strain, weighing 240-260 g were used in the experiment. After overnight starvation the rats were transferred to conditioned laboratories (temp.=21±1° C., relative humidity=65±5%). The rats were treated subcutaneously or orally with a test compound or with the solvent (NaCl solution, 0.9%). One hour after treatment there was injected intravenously compound 48/80, freshly dissolved in water, at a dose of 0.5 mg/kg (0.2 ml/100 g of body weight). In control experiments, wherein 250 solvent-treated animals were injected with the standard dose of compound 48/80 not more than 2.8% of the animals survived after 4 hours, is therefore considered to be a safe criterion of a protective effect of drug administration.
In this connection the ED50 -values are the minimal doses of the concerned compounds, administered in the subcutaneous way, whereby 50% of the rats are protected against compound 48/80-induced lethality.

[7] = system: tryptamine-induced bilateral tonic seizures; test: tryptamine (TRY) test in rats, part of the combined APO-TRY-NOR test; format: in vivo, male Wistar rats; conditions: Rattus norvegicus, sc, 1.5 h, tryptamine 40 mg/kg i.v. at 90 min
[8] = system: apomorphine-induced phenomena: agitation and stereotypic chewing; test: apomorphine (APO) test in rats, part of the combined APO-TRY-NOR test; format: in vivo, male Wistar rats; conditions: Rattus norvegicus, sc, 0.5 h, read-out: ED50 (APO)-rat
[9] = s.c., rats, apomorphine 1.25 mg/kg i.v. 30 min after compound

SMILES | prevention of cyanosis of ears and extremities, lesions in the glandular area of the stomach and abnormal gastric distension [1] | ED50 [2] | ED50 [3] | caudal artery rat ED50 [4] | ED50 [5] | ED50 [6] | ED50 [7] | other results
CN(C)CCCSc1ccccc1NC(=O)/C=C/c1ccccc1 [cinanserin] | prevent completely | – | – | – | – | – | – | –
Cc1nc2sccn2c(=O)c1CCN1CCC(c2c[nH]c3ccccc23)CC1 [compound 12, 6-[2-[4-(1H-indol-3-yl)-1-piperidinyl]ethyl]-7-methyl-5H-thiazolo[3,2-a]pyrimidin-5-one] | – | 0.08 mg/kg | 0.08 mg/kg | 0.08 ng/mL | 0.31 mg/kg | 0.02 mg/kg | 0.08 mg/kg | ED50 [8, 9]: 0.08 mg/kg
Cc1nc2sc3c(n2c(=O)c1CCN1CCC(c2c[nH]c4ccccc24)CC1)CCC3 [compound 17, 7,8-dihydro-3-[2-[4-(1H-indol-3-yl)-1-piperidinyl]ethyl]-2-methyl-4H,6H-cyclopenta[4,5]thiazolo[3,2-a]-pyrimidin-4-one] | – | 0.03 mg/kg | 0.31 mg/kg | 0.31 ng/mL | 0.31 mg/kg | 0.08 mg/kg | 0.16 mg/kg | ED50 [8, 9]: 0.63 mg/kg
Cc1nc2sccn2c(=O)c1CCN1CCC(c2c[nH]c3ccc(F)cc23)CC1 [compound 22, 6-[2-[4-(5-fluoro-1H-indol-3-yl)-1-piperidinyl]ethyl]-7-methyl-5H-thiazolo[3,2-a]pyrimidin-5-one] | – | 0.12 mg/kg | 0.08 mg/kg | 1.25 ng/mL | 1.25 mg/kg | 1.25 mg/kg | 0.31 mg/kg | ED50 [8]: 1.25 mg/kg
Cc1nc2sc(C)c(C)n2c(=O)c1CCN1CCC(c2c[nH]c3ccccc23)CC1 [compound 25, 6-[2-[4-(1H-indol-3-yl)-1-piperidinyl]ethyl]-2,3,7-trimethyl-5H-thiazolo[3,2-a]pyrimidin-5-one] | – | 0.015 mg/kg | 0.16 mg/kg | 0.32 ng/mL | 0.63 mg/kg | 0.04 mg/kg | 0.16 mg/kg | ED50 [8, 9]: 0.31 mg/kg
CN1CCC(=C2c3ccccc3C=Cc3ccccc32)CC1 [cyproheptadine] | prevent completely | – | – | – | – | – | – | –
CN1C[C@H](CNC(=O)OCc2ccccc2)C[C@@H]2c3cccc4c3c(cn4C)C[C@H]21 [metergoline] | prevent completely | – | – | – | – | – | – | –
CC[C@@H](CO)NC(=O)[C@@H]1C=C2c3cccc4c3c(cn4C)C[C@H]2N(C)C1 [methysergide] | prevent completely | – | – | – | – | – | – | –
CN1CCN2c3ccccc3Cc3ccccc3C2C1 (stereo not drawn) [mianserin] | prevent completely | – | – | – | – | – | – | –
NC(=O)C1(N2CCCCC2)CCN(CCCC(=O)c2ccc(F)cc2)CC1 [pipamperone] | prevent completely | – | – | – | – | – | – | –
CN1CCC(=C2c3ccccc3CCc3sccc32)CC1 [pizotifen] | prevent completely | – | – | – | – | – | – | –
O=C(CCCN1CCC2(CC1)C(=O)NCN2c1ccccc1)c1ccc(F)cc1 [spiperone] | prevent completely | – | – | – | – | – | – | –
